The values below come from ChEMBL document CHEMBL1201862, “PubChem BioAssay data set” (2004).

Some test systems named below: SNB-19; Malme-3M; DLD-1; LOX IMVI; OVCAR-3; ACHN; KM12; SK-MEL-2; UACC-62; SF-295; K562; SN12C; NCI-H460; BT-549; DU-145; MDA-N; Hs-578T; CAKI-1; MDA-MB-435; NCI-H226.
What all share (experiment): NCI anticancer screen, dose series, 48 h

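Grown in 96-well plates, cells were treated for 48 hours with each compound at five concentrations. Insufficient inhibition: endpoint recorded as highest concentration tested. The concentration for 50% growth inhibition is given as GI50.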 Active and inactive are the calls of the source. No stated cut-off is given here; in the data, active = GI50 up to about 1.1 µM and inactive = higher.

Consider `N#CC1(CCCCl)CCCCC1`, for which the GI50 with SNB-19, in the test with Malme-3M, in the test on DLD-1, in the test with LOX IMVI, in the test on OVCAR-3 and in the test on ACHN was > 100 µM (inactive) in each case. The GI50 with KM12 was > 100 µM (inactive); with SK-MEL-2, > 100 µM (inactive); in the test with UACC-62, > 100 µM (inactive); in the test on SF-295 it was > 100 µM (inactive); with K562, > 10 µM (inactive); in the test with SN12C, > 100 µM (inactive). Moreover, the GI50 in the test with NCI-H460 is > 100 µM (inactive).

`CCOC1OC(CO[Si](C)(C)C(C)(C)C)C(O)CC1n1ccc(=O)[nH]c1=O` (stereo unspecified): the GI50 in the test on BT-549 is > 100 µM (inactive); with DU-145 it was > 100 µM (inactive); in the test on MDA-N, > 100 µM (inactive); in the test on SNB-19, > 100 µM (inactive); in the test on Malme-3M it was > 100 µM (inactive); in the test with LOX IMVI it was 17.4 µM (inactive). The GI50 in the test with OVCAR-3 is 43.8 µM (inactive); in the test on Hs-578T, > 100 µM (inactive); with ACHN, > 100 µM (inactive); in the test with KM12, 88.7 µM (inactive); in the test with SK-MEL-2 it was > 100 µM (inactive); in the test with UACC-62, > 100 µM (inactive). Also, the GI50 was 56.4 µM (inactive) with CAKI-1; > 100 µM (inactive) in the test on MDA-MB-435; > 100 µM (inactive) in the test on SF-295; 31.9 µM (inactive) in the test with K562; > 100 µM (inactive) in the test on SN12C; > 100 µM (inactive) in the test with NCI-H226. Further, the GI50 in the test with NCI-H460 was 81.3 µM (inactive).

With `Cn1cc(-c2n[nH]c(-c3ccc(Cl)cc3)nc2=O)c2ccccc21`, the GI50 in the test with BT-549 was 5.57 µM (inactive); with DU-145, 3.2 µM (inactive); in the test with MDA-N, 0.399 µM (active); in the test on SNB-19, 3.03 µM (inactive); in the test with Malme-3M, 3.44 µM (inactive); in the test on LOX IMVI, 5.64 µM (inactive). The GI50 was 0.979 µM (active) with OVCAR-3; 2.76 µM (inactive) in the test on Hs-578T; 7.76 µM (inactive) with ACHN; 0.776 µM (active) in the test on KM12; 3.4 µM (inactive) with SK-MEL-2; 1.73 µM (inactive) with UACC-62. Further, the GI50 in the test with CAKI-1 is 1.36 µM (inactive); in the test on MDA-MB-435 it was 0.184 µM (active); in the test on SF-295, 1.43 µM (inactive); with K562, 0.544 µM (active); with SN12C, 6.34 µM (inactive); in the test with NCI-H226 it was 3.84 µM (inactive). Moreover, the GI50 with NCI-H460 is 2.33 µM (inactive).

As to `N#Cc1ncn(-c2ccccc2)c1N`, the GI50 with BT-549, in the test with DU-145, with MDA-N, in the test with SNB-19, with Malme-3M and in the test on LOX IMVI was > 100 µM (inactive) throughout. The GI50 in the test with OVCAR-3, in the test on Hs-578T, in the test with ACHN, with KM12, with SK-MEL-2 and with UACC-62 was > 100 µM (inactive) throughout. Moreover, the GI50 in the test on CAKI-1, with MDA-MB-435, in the test with SF-295, in the test with K562, in the test with SN12C and in the test with NCI-H226 was > 100 µM (inactive) each time. Further, the GI50 in the test with NCI-H460 is > 100 µM (inactive).

Regarding `Cc1cc2c(cc1C)C(=O)/C(=C/c1ccccc1C(=O)O)C2`, the GI50 is 25.6 µM (inactive) with BT-549; > 100 µM (inactive) in the test on DU-145; 47.8 µM (inactive) in the test with MDA-N; 34.7 µM (inactive) with SNB-19; 47.8 µM (inactive) with Malme-3M; 25.9 µM (inactive) with LOX IMVI. Besides, the GI50 is 31.7 µM (inactive) in the test on OVCAR-3; 34 µM (inactive) with Hs-578T; 55 µM (inactive) in the test on ACHN; 55.5 µM (inactive) in the test with KM12; 35.4 µM (inactive) in the test with SK-MEL-2; 54.7 µM (inactive) in the test on UACC-62. Besides, the GI50 was 72.4 µM (inactive) with CAKI-1; 34.8 µM (inactive) in the test on MDA-MB-435; 32.5 µM (inactive) in the test on SF-295; 37.2 µM (inactive) in the test with K562; 45.2 µM (inactive) with SN12C; 15.3 µM (inactive) in the test with NCI-H226. In the test with NCI-H460, the GI50 was 40.5 µM (inactive).

For `Cc1cc(C)nc(NS(=O)(=O)c2ccc(Nc3c4ccccc4nc4c(C(=O)Nc5ccc(S(=O)(=O)Nc6cc(C)on6)cc5)ccc(Cl)c34)cc2)n1`, the GI50 in the test with SNB-19 was 22.4 µM (inactive); in the test on Malme-3M, 28.1 µM (inactive); in the test on DLD-1, 17.2 µM (inactive); in the test on LOX IMVI, 22.2 µM (inactive); with OVCAR-3, 17 µM (inactive); in the test with ACHN, 36.2 µM (inactive). The GI50 in the test with KM12 was 17.3 µM (inactive); in the test on UACC-62, 26.4 µM (inactive); in the test with SF-295 it was 20.7 µM (inactive); with K562, 27.8 µM (inactive); with SN12C it was 21.3 µM (inactive); with NCI-H460, 22 µM (inactive).

For the compound `Cn1c([N+](=O)[O-])cnc1CN1CCN(CCO)CC1`, the GI50 in the test on BT-549, in the test on DU-145, in the test on MDA-N, in the test on SNB-19, with Malme-3M and in the test on LOX IMVI was > 100 µM (inactive) throughout. In addition, the GI50 in the test on OVCAR-3, in the test on Hs-578T, with ACHN, with KM12, with SK-MEL-2 and with UACC-62 was > 100 µM (inactive) throughout. The GI50 in the test with CAKI-1, in the test on MDA-MB-435, with SF-295, with K562, with SN12C and in the test on NCI-H226 was > 100 µM (inactive) in each case. Moreover, the GI50 with NCI-H460 is > 100 µM (inactive).

As for `CC1CC2OC(=O)C(C)C2CC2(C)C(OC3OC(CO)C(O)C(O)C3O)OCCC12` (stereo unspecified), the GI50 was 15.5 µM (inactive) with BT-549; > 100 µM (inactive) in the test with DU-145; > 100 µM (inactive) in the test with MDA-N; > 100 µM (inactive) in the test on SNB-19; > 100 µM (inactive) in the test with Malme-3M; > 100 µM (inactive) in the test with LOX IMVI. The GI50 was > 100 µM (inactive) in the test with OVCAR-3; > 100 µM (inactive) with Hs-578T; > 100 µM (inactive) in the test with ACHN; > 100 µM (inactive) with KM12; > 100 µM (inactive) in the test with SK-MEL-2; 16.9 µM (inactive) in the test with UACC-62. For the same compound, the GI50 with CAKI-1, in the test on MDA-MB-435, in the test with SF-295, with K562, in the test on SN12C and in the test with NCI-H226 was > 100 µM (inactive) each time. Also, the GI50 in the test with NCI-H460 was > 100 µM (inactive).

With `O=C(NC(=O)c1ccccc1)OC(c1ccccc1)C1CO1` (stereo unspecified), the GI50 with BT-549, with DU-145, in the test with MDA-N, with SNB-19, in the test on Malme-3M and in the test on LOX IMVI was > 100 µM (inactive) throughout. In addition, the GI50 with OVCAR-3, in the test on Hs-578T, with ACHN, in the test with KM12, in the test on SK-MEL-2 and with UACC-62 was > 100 µM (inactive) throughout. The GI50 in the test with CAKI-1, in the test with MDA-MB-435, in the test on SF-295, in the test on K562, in the test with SN12C and with NCI-H226 was > 100 µM (inactive) throughout. Further, in the test on NCI-H460, the GI50 is > 100 µM (inactive).

`c1ccc(COCC23CCN(Cc4ccccc4)C(CC(OCc4ccccc4)C2)S3)cc1` (stereo unspecified): the GI50 in the test with BT-549 was 42.6 µM (inactive); in the test on DU-145, > 100 µM (inactive); with MDA-N, 50.9 µM (inactive); in the test on SNB-19, 90.8 µM (inactive); with Malme-3M, 29.7 µM (inactive); with LOX IMVI, 19.3 µM (inactive). The GI50 was 97.5 µM (inactive) with OVCAR-3; 86.3 µM (inactive) in the test on Hs-578T; 78.9 µM (inactive) with ACHN; 44.1 µM (inactive) with KM12; 37.2 µM (inactive) in the test on SK-MEL-2; 52.4 µM (inactive) in the test with UACC-62. For the same compound, the GI50 in the test with CAKI-1 was 77.1 µM (inactive); in the test on MDA-MB-435, 46 µM (inactive); in the test with SF-295, 87.1 µM (inactive); in the test with K562 it was 31 µM (inactive); with SN12C, 57.9 µM (inactive); in the test on NCI-H226 it was 97.3 µM (inactive). In addition, the GI50 in the test with NCI-H460 is 46.7 µM (inactive).

`CCOC(=O)/C(=C\NCC(OCC)OCC)c1nc2ccccc2[nH]1`: the GI50 was 22.4 µM (inactive) with BT-549; 43.7 µM (inactive) in the test with DU-145; 29 µM (inactive) in the test on MDA-N; 67.3 µM (inactive) in the test with SNB-19; 25.8 µM (inactive) with Malme-3M; 24.8 µM (inactive) in the test on LOX IMVI. Besides, the GI50 in the test with OVCAR-3 is 22 µM (inactive); in the test with Hs-578T, 35.6 µM (inactive); in the test on ACHN, 35.2 µM (inactive); with KM12, 32.1 µM (inactive); with SK-MEL-2 it was 22.3 µM (inactive); with UACC-62, 16.3 µM (inactive). The GI50 in the test with CAKI-1 is 38.9 µM (inactive); in the test with MDA-MB-435 it was 25 µM (inactive); with SF-295, 32.1 µM (inactive); in the test on K562, 22.8 µM (inactive); in the test with SN12C, 39.2 µM (inactive); with NCI-H226, 37.7 µM (inactive). Further, the GI50 with NCI-H460 was 23.1 µM (inactive).
